Results from patent US10377781B2, “Alkylidene phosphonate esters as p-glycoprotein inducers” (Council of Scientific & Industrial Research, priority 2014, dated 2019).
Values after ≈ are worked out from the molar mass of the structure shown. “Also recorded” adds a separate entry of the source. Where two headings read alike, the source gives them in different places.

Columns and labels:
[1] = Thermodynamic equilibrium solubility; format: physicochemical; conditions: for solubility: 25 °C, thermodynamic from solid
Experimental: The compounds were first dissolved in methanol to prepare stock solutions (100 and 1000 μg/mL). Different concentrations of stock solutions were pipetted into the 96-well plates and the solvent was evaporated to ensure that solid drug was present in the beginning of the experiment. […] The plates were kept overnight for equilibration of drug in medium. Later, the plates were centrifuged at 3000 rpm for 15 min (Jouan centrifuge BR4i). Supernatant (50 μl) was pipetted into UV 96-well plates (Corning® 96 Well Clear Flat Bottom UV-Transparent Microplate) for analyses with plate reader (SpectraMax Plus384) at λmax of 350 nm. The analyses were performed in triplicate for each compound. The solubility curve of concentration (ng/mL) vs absorbance was plotted to find out saturation point and the corresponding concentration was noted.

[2] = tested on: P-glycoprotein (Pgp) in LS-180 cells; assay: Pgp-induction assay, rhodamine123 (Rh123) cell exclusion method; format: cell-based; conditions: for EC50: LS180 cells treated 48 h, Rh123 fluorescence vs concentration
Experimental: All synthesized compounds were screened for their ability to induce Pgp using rhodamine123 (Rh123) cell exclusion method. In this method, the Pgp function was evaluated in terms of rhodamine 123 (Rh123) accumulations and efflux. Briefly, the protocol used is as follows: Colorectal LS-180 cells [obtained from ECACC (European Collection of Cell Cultures) catalogue number: 87021202; passage number 52] were seeded at a density of 2×10^4 per well of 96 well plate and were allowed to grow for next 24 h. Cells were further incubated with the test compounds, and were diluted to a final concentration of 100 nM and rifampicin (standard) to a final concentration of 10 μM in complete media for 48 h. The final concentration of DMSO was kept at 0.1%. Drugs were removed and cells were incubated with HANKS buffer for 40 minutes before further incubation with HANKS buffer (containing 10 μM of Rh123 as a Pgp substrate) for 90 minutes. At the end of Rh123 treatment cells were washed four times with cold PBS followed by cell lysis for 1 h by using 200 μl of lysis buffer (0.1% Triton X-100 and 0.2 N NaOH). A total of 100 μl of lysate was used for reading fluorescence of Rh123 at 485 nm/529 nm. Samples were normalized by dividing fluorescence of each sample with total protein present in the lysate. For EC50 determination, different concentrations of compound were used to treat LS180 cells for 48 h. The EC50 value was determined by plotting fluoroscence of Rh123 against concentration of compound.

[3] = tested on: p-glycoprotein expression in LS-180 cells; assay: Western blot analysis of Pgp expression; format: cell-based
Experimental: Protein was measured employing Bio-Rad protein assay kit using bovine serum albumin as standard. Proteins aliquots (70 μg) were resolved on SDS-PAGE and then electro transferred to PVDF membrane overnight at 4° C. at 30V. Nonspecific binding was blocked by incubation with 5% non-fat milk in Tris-buffered saline containing 0.1% Tween-20 (TBST) for 1 h at room temperature. The blots were probed with anti-Pgp antibody for 4 h and washed three times with TBST. Blot was then incubated with horseradish peroxidase conjugated antimouse secondary antibody for 1 h, washed again three times with TBST and signals detected using ECL plus chemiluminescence's kit on BioRad ChemiDoc XRS system.

rat PXR = biological target: T1, rat PXR (Rattus norvegicus, UniProt Q9R1A7); conditions: cited from earlier work
T1 sequence (Q9R1A7 1-431): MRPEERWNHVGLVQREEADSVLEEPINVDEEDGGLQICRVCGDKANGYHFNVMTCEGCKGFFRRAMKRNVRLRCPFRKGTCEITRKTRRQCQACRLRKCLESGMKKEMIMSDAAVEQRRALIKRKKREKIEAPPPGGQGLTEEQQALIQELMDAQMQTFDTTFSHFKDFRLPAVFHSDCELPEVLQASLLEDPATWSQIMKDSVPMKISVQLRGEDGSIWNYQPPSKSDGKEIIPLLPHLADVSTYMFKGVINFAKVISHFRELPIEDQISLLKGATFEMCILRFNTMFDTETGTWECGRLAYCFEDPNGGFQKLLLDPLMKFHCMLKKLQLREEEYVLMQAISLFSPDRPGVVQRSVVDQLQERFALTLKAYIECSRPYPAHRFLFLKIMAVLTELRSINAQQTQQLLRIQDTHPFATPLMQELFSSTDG

CYP3A4 = conditions: rat hepatocytes; cited from earlier work
HMG-Co A reductase = conditions: HepG2 (hepatocellular carcinoma) cells; read-out: IC50, reduction of HMG-Co A reductase activity; cited from earlier work
rabbit PXR = biological target: T2, rabbit PXR (Oryctolagus cuniculus, UniProt Q9TU02); conditions: read-out: EC50, activation of rabbit PXR; cited from earlier work
T2 sequence (Q9TU02 1-411): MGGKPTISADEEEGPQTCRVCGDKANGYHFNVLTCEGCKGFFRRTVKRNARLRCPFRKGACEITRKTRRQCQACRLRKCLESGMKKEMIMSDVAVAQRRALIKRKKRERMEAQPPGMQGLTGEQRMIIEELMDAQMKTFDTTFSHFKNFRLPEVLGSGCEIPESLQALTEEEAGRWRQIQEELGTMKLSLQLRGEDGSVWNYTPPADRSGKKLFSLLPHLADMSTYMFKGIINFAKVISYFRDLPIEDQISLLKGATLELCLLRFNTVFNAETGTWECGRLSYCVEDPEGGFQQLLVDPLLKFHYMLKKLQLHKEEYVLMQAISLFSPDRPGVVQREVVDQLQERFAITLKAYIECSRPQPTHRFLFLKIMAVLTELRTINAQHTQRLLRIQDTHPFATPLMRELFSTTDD

mouse PXR = biological target: T3, mouse PXR (Mus musculus, UniProt O54915); conditions: cited from earlier work
T3 sequence (O54915 1-431): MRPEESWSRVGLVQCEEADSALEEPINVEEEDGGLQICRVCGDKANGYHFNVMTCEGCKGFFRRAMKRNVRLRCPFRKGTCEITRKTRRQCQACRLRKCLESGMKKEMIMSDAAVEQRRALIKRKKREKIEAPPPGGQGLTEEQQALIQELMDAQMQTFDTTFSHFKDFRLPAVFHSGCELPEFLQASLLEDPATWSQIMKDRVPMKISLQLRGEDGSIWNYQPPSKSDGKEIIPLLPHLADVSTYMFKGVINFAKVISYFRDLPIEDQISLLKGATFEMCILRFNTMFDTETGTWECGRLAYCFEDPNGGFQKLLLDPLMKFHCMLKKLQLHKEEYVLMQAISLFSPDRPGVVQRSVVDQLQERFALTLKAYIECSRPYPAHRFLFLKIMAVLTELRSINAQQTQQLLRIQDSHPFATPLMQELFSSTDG

| Compound | Solubility, PBS ([1]; phosphate buffer saline (PBS)) [µg/mL] | Solubility, SGF ([1]; simulated gastric fluid (SGF)) [µg/mL] | Solubility, SIF ([1]; simulated intestinal fluid (SIF)) [µg/mL] | solubility in words ([1]; water and biological fluids) | Solubility, Water ([1]; water, 25±1° C.) [µg/mL] | EC50 [2] [nM] | Pgp induction as decrease in % intracellular levels of rhodamine 123 ([2]; LS-180 cells, test compounds 100 nM, 48 h) | fold difference of EC50 versus SR12813 (1a) ([2]; Pgp induction EC50, LS180 cells) [fold] | p-glycoprotein expression (Western blot) [3] | solubility ([1]; water, 25±1° C., read-out: Solubility, Water) [µg/mL] | solubility ([1]; phosphate buffer saline (PBS), aqueous buffer, read-out: Solubility, PBS) [µg/mL] | solubility ([1]; simulated gastric fluid (SGF), simulated gastric fluid, read-out: Solubility, SGF) [µg/mL] | solubility ([1]; simulated intestinal fluid (SIF), fassgf or other biorelevant, read-out: Solubility, SIF) [µg/mL] | activation of rat PXR (rat PXR) | CYP3A4 protein levels (CYP3A4) | IC50 (HMG-Co A reductase) [nM] | EC50 (rabbit PXR) [nM] | activation of mouse PXR (mouse PXR) |
| --- | --- | --- | --- | --- | --- | --- | --- | --- | --- | --- | --- | --- | --- | --- | --- | --- | --- | --- |
| CCOP(=O)(OCC)C(=Cc1c2ccccc2cc2ccccc12)P(=O)(OCC)OCC [Compound 1l, Tetraethyl 2-(anthracene-10-yl) ethene-1,1-diyldiphosphonate] | >1500 | >1500 | >1500 | optimal solubility | 400 (≈ 840 µM) | 0.9 | decreased; also recorded: promising induction of p-glycoprotein | 2 | induces p-glycoprotein expression |  |  |  |  |  |  |  |  |  |
| CCOP(=O)(OCC)C(=Cc1cc(C(C)(C)C)c(O)c(C(C)(C)C)c1)P(=O)(OCC)OCC [Compound 1a] |  |  |  |  |  | 2.04 |  |  |  | 200 (≈ 396 µM) | 200 (≈ 396 µM) | 200 (≈ 396 µM) | 200 (≈ 396 µM) | very weak activator | increase CYP3A4 protein levels | 850 | ~700 | very weak activator |
